Assay results as given in paper PMC12751141, “Disrupting α-Synuclein–ClpP interaction restores mitochondrial function and attenuates neuropathology in Parkinson’s disease models” (Molecular Neurodegeneration, 2025).
One block for each substance: values may come before it.

Key:
FITC-αSyn (human) = FITC-αSyn (human) (UniProt P37840); assay: MST
[1] = target: human recombinant αSyn pre-formed fibrils (PFF) (Type 1) (human); assay: MST
SH-SY5Y cells = assay: Mitochondrial ROS (Mito-SOX) in SH-SY5Y cells; format: cell-based; conditions: SH-SY5Y expressing VN/VC-αSyn (CS1: WT αSyn); Mito-SOX 5 µM; vs TAT
Protocol: Cells cultured on coverslips or 24-well plates were washed with DPBS and then incubated with 5 µM Mito-SOX™ Red (Invitrogen, M36008), a mitochondrial superoxide indicator, for 10 min at 37 °C. For cells cultured on coverslips, the images were visualized by microscope, and quantification of images was then carried out using NIH ImageJ software. At least 100 cells per group were counted in the analysis.
(§1) The bimolecular fluorescence was examined 24-hour after transfection (n = 3, one-way ANOVA with Tukey’s post-hoc test, scale bar = 30 μm). (D) Quantification of the concentration (ng/ml) of extracellular αSyn monomer and oligomer, and intracellular αSyn oligomer in Tet-inducible SH-SY5Y cells that were pre-treated with TAT or CS2 peptide 30-minute before adding doxycycline (Dox) to induce αSyn expression. The concentration of αSyn species was determined by ELISA (n = 4, one-way ANOVA with Tukey’s post-hoc test; data are mean ± SEM). (E) Representative images of Mito-SOX staining in SH-SY5Y cells that were pre-treated with TAT or CS2 peptide and transfected with split Venus-αSyn vectors. Mitochondrial ROS production was determined by Mito-SOX staining after 24-hour transfection (n = 4, two-tailed Student’s t test, scale bar = 30 μm).

[2] = test system: αSyn oligomerization (VN/VC-αSyn), SH-SY5Y cells; assay: BiFC split-Venus αSyn oligomerization in SH-SY5Y cells; format: cell-based
Source text: (§2) To construct truncated-αSyn plasmids, pcDNA3.1(-) was digested with BsteII and XbaI, and ΔN-, ΔC- and ΔNAC-αSyn was PCR-amplified using self-designed primers and inserted into the plasmid backbone. Cells were transfected with TransIT-2020 (Mirus Bio, LLC) following the manufacturer’s protocol.
as §1
The bimolecular fluorescence was examined 24-hour after the transfection and quantitated (n = 14 areas/group, one-way ANOVA with Tukey’s post-hoc test, data are mean ± SEM).

ClpP–αSyn interaction = assay: Co-immunoprecipitation of ClpP with αSyn constructs in HEK293T cell lysates; format: cell-based
Protocol: as §2, with “Myc-tagged WT- and A53T- αSyn, Myc-tagged ClpP, and Flag-tagged WT- and S153A- ClpP plasmids were self-constructed as previously described (Ref). To” for “To”
(§3) Cells or tissues were lysed in total lysis buffer (50mM Tris-HCl, pH 7.5, 150mM NaCl, 1% Triton X-100, and protease inhibitor). Total protein lysates (800 µg) were incubated with the indicated antibodies overnight at 4 °C followed by the addition of protein A/G beads (sc-2003, Santa Cruz) for 2 h at 4 °C. Various recombinant αSyn and Clpp (500 ng) were incubated in in vitro interaction buffer (20mM Tris-HCl pH 7.5, 100mM KCl, 2mM MgCl2 and 0.1% Triton-X100) for 30 min at room temperature, and then incubated with indicated antibodies overnight at 4 °C followed by the addition of protein A/G beads for 2 h at 4 °C. The beads with immuno-precipitates were pulled down at 4000 g and washed four times with total lysis buffer/in vitro interaction buffer in the presence of 0.1% Triton X-100 and were analyzed by western blot analysis.
Shown are representative blots of 3 independent experiments. Quantification of the ratio of αSyn over ClpP (pull-down) (n = 4, two-tailed Student’s t test, data are mean ± SEM).

ClpP (SH-SY5Y cells) = assay: ClpP protein level, western blot, SH-SY5Y cells; format: cell-based; conditions: WT or A53T αSyn overexpression; 30 min pretreatment; n = 4–5 (CS1: n = 4)
ClpP (HEK293T cells) = assay: ClpP protein level, western blot, HEK293T cells; format: cell-based; conditions: WT or A53T αSyn overexpression; 30 min pretreatment; n = 4–5 (CS1: n = 4)
αSyn–ClpP binding = assay: Immunoprecipitation of recombinant ClpP and αSyn in vitro; set-up: species or system human; conditions: recombinant ClpP pre-incubated with peptide 30 min before αSyn; anti-ClpP IP; 3 independent experiments
Protocol: The human recombinant WT- (#S-1001-2), A53T- (#S-1001-2), ΔNAC- (#S-1015-1) and ΔC- (#S-1012-1) αSyn and FITC-αSyn (S-1113-2) were purchased from rPeptide. The human recombinant αSyn pre-formed fibrils (PFF) (Type 1) (SPR-322) and ATTO-594-PFF (SPR-322B-A594) were purchased from StressMarq Biosciences (Bioactivity has been widely validated via various approaches, e.g. TEM, ThT).
as §3

[3] = test system: αSyn PFF-seeded aggregation; assay: αSyn ThT assay, PFF-seeded aggregation with recombinant ClpP; format: biochemical, human; conditions: ClpP 5/10 µM; αSyn PFF 1 µM; ThT 1 µM; PBS pH 7.4, 37 °C, 500 rpm, up to 48 h; ex 450 nm / em 485 nm; n = 4
Protocol: αSyn monomer (5µM) and PFF (1µM) were incubated with recombinant ClpP (5/10µM) and Thioflavin T (ThT) (1µM) in 100 µl PBS (pH 7.4) at 37 °C in a shaking incubator (500 rpm). ThT fluorescence was measured (excitation 450 nm, emission 485 nm) every 15 min up to 48 h.
Fig. 1 ClpP modulates αSyn tetramer and aggregates. […] (B) Western blot and quantification of αSyn tetramer/monomer ratio and oligomer/monomer ratio, upon intact cell DSG-crosslinking, in HEK293T cells overexpressing Myc-tagged WT αSyn with EV or Flag-tagged S153A-ClpP (n = 4–5, two-tailed Student’s t test). (C) Fluorescent images and quantification of αSyn aggregation in SH-SY5Y cells overexpressing EV or ClpP with vectors expressing Venus-N-αSyn (VN) and αSyn-C-Venus (VC) (n = 7, two-tailed Student’s t test, Scale bar = 10 μm). (D) Fluorescent images and quantification of αSyn aggregation in control knock-down (Consh) or ClpP knock-down (ClpPsh) SH-SY5Y cells overexpressing VN and VC (n = 4, two-tailed Student’s t test, Scale bar = 10 μm). (E) In vitro αSyn PFF (1µM) – seeded aggregation in the absence (control) or presence of ClpP (5/10µM) was monitored by thioflavin T (ThT) fluorescence (n = 4, two-tailed Student’s t test). […]

Substance: Decoy peptide CS2 (TAT-C6-GGVVTA) (from UniProt P04608 47-57)
Kd (FITC-αSyn (human)): 7 µM
Kd [1]: 4 µM

αSyn–ClpP binding, recombinant (αSyn–ClpP binding): no effect
Substance: TAT-C6-GAVVTG [CS1, decoy peptide]
mitochondrial ROS (Mito-SOX intensity) (SH-SY5Y cells): failed to restore ClpP expression (Fig. S4A and B), reduce αSyn oligomerization (Fig. S4C), or suppress ROS
BiFC signal / αSyn oligomerization ([2]; SH-SY5Y expressing VN/VC-αSyn, 24-hour after transfection): failed to restore ClpP expression (Fig. S4A and B), reduce αSyn oligomerization
αSyn aggregation, discussion summary ([2]; in vitro or in vivo): no effect, either in vitro or in vivo
ClpP binding to ΔC-αSyn (ClpP–αSyn interaction; HEK293T lysates, Flag-ClpP + Myc-ΔC-αSyn): not CS1, abolished the binding
ClpP binding to ΔN-αSyn (ClpP–αSyn interaction; HEK293T lysates, Flag-ClpP + Myc-ΔN-αSyn): not CS1, abolished the binding
ClpP binding to WT-αSyn (ClpP–αSyn interaction; HEK293T lysates, WT αSyn, CS2: 24-hour treatment): not CS1, abolished the binding
αSyn-ClpP interaction, discussion summary (ClpP–αSyn interaction; in vitro or in vivo): no effect, either in vitro or in vivo
ClpP protein level, SH-SY5Y (ClpP (SH-SY5Y cells)): failed to restore ClpP expression
ClpP protein level, HEK293T (ClpP (HEK293T cells)): failed to restore ClpP expression

Substance: recombinant ClpP protein: human recombinant ClpP obtained from Dr. Aaron Schimmer
PFF-ThT fluorescence [3]: dose-dependent suppression of PFF-ThT fluorescence intensity
